The source of these data is BindingDB's records for doi:10.1016/j.chembiol.2005.08.008 (Gpc Biotech, 2005).

In experiment [1] the target is T1, Cyclin-dependent kinase/G2/mitotic-specific cyclin- 1 (Homo sapiens, UniProt P06493). Description: Cell Proliferation Assay. From the text:
Inhibition of HCT116 cell proliferation with compounds using calcein AM Assay.

The target of experiment [2] is T1, Cyclin-dependent kinase/G2/mitotic-specific cyclin- 1. Description: Inhibition Assay. From the text: (§1) In vitro kinase activity of PEGylated pyrazolopyrimidone CDK inhibitor or a 5 PEG-amine was coupled to ReactiGel agarose beads (Pierce, No. 20259).
In experiment [3] the target is T2, Cyclin-dependent kinase 2/G1/S-specific cyclin-E1 (Homo sapiens, UniProt P24941). In words: Inhibition Assay.
Source text: as §1

Experiment [4] deals with T3, Cyclin-dependent kinase 4/G1/S-specific cyclin-D1 (Homo sapiens, UniProt P11802). Description: Inhibition Assay.
T3 sequence (P11802 whole entry): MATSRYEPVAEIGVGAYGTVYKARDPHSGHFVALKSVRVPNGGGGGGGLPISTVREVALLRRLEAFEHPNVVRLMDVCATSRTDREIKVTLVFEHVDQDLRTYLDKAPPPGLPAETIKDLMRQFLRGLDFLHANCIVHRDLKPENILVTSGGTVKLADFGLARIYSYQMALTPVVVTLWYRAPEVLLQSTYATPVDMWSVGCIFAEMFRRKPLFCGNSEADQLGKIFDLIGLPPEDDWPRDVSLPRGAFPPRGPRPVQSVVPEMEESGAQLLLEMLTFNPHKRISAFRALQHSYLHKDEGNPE
T3 sequence (P24385 whole entry, further chain): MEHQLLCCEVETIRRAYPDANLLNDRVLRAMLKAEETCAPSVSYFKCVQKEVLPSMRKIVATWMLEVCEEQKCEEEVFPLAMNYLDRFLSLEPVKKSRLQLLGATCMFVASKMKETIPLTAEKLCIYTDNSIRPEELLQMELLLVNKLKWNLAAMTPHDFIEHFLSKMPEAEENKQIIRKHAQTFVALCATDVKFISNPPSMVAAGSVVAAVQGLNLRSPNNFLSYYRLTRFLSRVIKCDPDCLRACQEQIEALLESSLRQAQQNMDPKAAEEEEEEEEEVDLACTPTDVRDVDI
Source text: as §1

Experiment [5] deals with T1, Cyclin-dependent kinase/G2/mitotic-specific cyclin- 1. In words: In Vitro Kinase Assay. The text has this:
(§2) Inhibition of in vitro kinase activity of purified CDKs.

Experiment [6] deals with T2, Cyclin-dependent kinase 2/G1/S-specific cyclin-E1. In words: In Vitro Kinase Assay.
Source text: as §2

Experiment [7] has as its target T3, Cyclin-dependent kinase 4/G1/S-specific cyclin-D1. Description: In Vitro Kinase Assay.
Source text: as §2

Experiment [8] concerns the target T1, Cyclin-dependent kinase/G2/mitotic-specific cyclin- 1. Description: Cell Proliferation Assay. The protocol:
Inhibition of HCT116 cell proliferation after 72hr of incubation with compounds was determined by SRB Assay.
This is another data set of the same source.

Experiment [9] has as its target Glycogen synthase kinase-3 beta (Homo sapiens, UniProt P49841). In words: In Vitro Kinase Assay.
Experiment [10] addresses T4, CDK-activating kinase assembly factor MAT1 (Homo sapiens, UniProt P51948).
T4 sequence (P51948 whole entry): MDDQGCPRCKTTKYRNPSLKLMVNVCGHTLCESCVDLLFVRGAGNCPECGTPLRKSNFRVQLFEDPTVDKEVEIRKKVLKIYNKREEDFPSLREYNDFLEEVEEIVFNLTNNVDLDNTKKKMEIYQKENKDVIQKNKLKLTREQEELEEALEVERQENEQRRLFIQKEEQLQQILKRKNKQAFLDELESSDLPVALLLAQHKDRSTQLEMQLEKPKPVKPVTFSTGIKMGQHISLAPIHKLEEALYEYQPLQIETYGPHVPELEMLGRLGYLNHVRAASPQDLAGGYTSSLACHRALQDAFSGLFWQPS
Description: In Vitro Kinase Assay.
Source text: as §2

For experiment [11], the target named is CDK3/Cyclin E (Homo sapiens, UniProt Q00526). Description: In Vitro Kinase Assay.
Sequence of CDK3/Cyclin E (P24864 whole entry): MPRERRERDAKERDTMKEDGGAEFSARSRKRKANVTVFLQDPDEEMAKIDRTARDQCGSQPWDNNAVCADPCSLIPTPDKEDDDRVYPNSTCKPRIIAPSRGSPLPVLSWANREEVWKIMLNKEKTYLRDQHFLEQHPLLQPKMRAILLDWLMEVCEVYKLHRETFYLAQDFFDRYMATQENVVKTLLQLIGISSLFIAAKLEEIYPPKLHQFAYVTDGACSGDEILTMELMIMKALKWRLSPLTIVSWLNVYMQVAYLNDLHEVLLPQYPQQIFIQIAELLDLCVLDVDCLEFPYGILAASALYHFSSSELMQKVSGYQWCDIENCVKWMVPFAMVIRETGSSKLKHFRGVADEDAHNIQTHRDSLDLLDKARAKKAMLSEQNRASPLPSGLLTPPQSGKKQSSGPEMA
Sequence of CDK3/Cyclin E (Q00526 whole entry): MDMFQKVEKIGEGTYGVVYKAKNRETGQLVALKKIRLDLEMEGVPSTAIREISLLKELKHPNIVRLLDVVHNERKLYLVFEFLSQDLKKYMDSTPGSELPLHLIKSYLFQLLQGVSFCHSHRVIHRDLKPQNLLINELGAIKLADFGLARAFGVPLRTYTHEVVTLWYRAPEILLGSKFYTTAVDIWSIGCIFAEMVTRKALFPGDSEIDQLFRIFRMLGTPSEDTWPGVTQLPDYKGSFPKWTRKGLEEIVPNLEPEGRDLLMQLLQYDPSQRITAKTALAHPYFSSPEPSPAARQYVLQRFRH
Source text: as §2

Experiment [12] concerns the target Cyclin-dependent kinase 6/G1/S-specific cyclin-D3 (Homo sapiens, UniProt Q00534). In words: In Vitro Kinase Assay.
Source text: as §2

For experiment [13], the target named is Cyclin-dependent kinase 5 (Homo sapiens, UniProt Q00535). Description: In Vitro Kinase Assay.
Sequence of Cyclin-dependent kinase 5 (Q00535 whole entry): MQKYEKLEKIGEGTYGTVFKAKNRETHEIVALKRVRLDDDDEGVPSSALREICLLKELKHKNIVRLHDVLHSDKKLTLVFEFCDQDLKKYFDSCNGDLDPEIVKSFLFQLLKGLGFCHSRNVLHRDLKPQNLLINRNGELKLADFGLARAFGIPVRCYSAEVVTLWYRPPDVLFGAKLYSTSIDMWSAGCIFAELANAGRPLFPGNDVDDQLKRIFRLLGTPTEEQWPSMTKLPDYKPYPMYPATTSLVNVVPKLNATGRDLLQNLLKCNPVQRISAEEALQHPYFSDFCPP
Source text: as §2

Each structure is given as a SMILES string. Where only a bound is given, the exact number is not on record here.

T1 sequence (P06493 whole entry): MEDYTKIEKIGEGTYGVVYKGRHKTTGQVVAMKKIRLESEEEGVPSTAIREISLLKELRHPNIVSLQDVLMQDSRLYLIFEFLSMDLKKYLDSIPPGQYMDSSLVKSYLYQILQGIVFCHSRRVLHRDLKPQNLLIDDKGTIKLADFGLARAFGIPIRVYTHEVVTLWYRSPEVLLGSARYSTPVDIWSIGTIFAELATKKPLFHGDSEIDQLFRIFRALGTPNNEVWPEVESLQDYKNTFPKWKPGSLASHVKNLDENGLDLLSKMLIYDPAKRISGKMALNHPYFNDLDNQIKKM
T1 sequence (P14635 whole entry, further chain): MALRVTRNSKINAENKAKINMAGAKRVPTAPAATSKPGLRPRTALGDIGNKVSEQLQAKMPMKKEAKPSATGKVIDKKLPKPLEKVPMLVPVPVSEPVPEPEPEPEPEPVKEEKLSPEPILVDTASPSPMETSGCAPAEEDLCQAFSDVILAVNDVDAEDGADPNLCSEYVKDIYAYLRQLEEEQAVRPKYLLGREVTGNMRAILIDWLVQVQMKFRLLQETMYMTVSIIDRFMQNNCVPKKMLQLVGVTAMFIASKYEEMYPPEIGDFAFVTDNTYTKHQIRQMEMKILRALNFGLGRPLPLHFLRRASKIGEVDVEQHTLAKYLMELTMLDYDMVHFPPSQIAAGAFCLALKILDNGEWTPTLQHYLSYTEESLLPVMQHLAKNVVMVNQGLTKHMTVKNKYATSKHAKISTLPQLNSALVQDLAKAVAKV
Sequence of Glycogen synthase kinase-3 beta (P49841 whole entry): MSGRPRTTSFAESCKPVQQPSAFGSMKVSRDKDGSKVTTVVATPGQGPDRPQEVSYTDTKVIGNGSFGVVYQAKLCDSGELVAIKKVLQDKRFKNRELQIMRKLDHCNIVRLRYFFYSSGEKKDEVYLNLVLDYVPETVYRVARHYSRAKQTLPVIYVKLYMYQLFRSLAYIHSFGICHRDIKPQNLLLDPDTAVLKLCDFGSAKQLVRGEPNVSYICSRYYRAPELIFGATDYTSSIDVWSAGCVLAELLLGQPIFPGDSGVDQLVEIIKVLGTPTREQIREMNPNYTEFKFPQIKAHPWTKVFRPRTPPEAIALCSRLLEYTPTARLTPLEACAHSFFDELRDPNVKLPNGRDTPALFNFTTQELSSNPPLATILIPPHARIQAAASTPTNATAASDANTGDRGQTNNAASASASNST
Sequence of Cyclin-dependent kinase 6/G1/S-specific cyclin-D3 (Q00534 whole entry): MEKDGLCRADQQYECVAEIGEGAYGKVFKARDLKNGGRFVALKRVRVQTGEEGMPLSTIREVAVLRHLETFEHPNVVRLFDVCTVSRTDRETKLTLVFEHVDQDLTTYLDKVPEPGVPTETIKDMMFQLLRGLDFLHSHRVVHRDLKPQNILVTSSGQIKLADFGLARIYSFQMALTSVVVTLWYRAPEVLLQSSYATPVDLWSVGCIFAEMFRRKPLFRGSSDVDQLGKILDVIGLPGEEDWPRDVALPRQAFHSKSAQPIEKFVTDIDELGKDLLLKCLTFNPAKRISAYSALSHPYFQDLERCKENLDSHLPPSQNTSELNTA
Sequence of Cyclin-dependent kinase 6/G1/S-specific cyclin-D3 (P30281 whole entry, further chain): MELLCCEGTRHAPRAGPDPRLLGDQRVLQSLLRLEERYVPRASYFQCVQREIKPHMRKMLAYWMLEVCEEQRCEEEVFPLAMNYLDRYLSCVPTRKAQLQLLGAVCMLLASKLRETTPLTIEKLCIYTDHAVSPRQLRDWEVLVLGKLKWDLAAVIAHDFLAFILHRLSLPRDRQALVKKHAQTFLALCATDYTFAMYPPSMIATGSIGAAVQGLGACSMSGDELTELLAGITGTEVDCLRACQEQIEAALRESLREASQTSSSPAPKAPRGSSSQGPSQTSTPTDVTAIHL

For the molecule `COCCOCCOCCOc1ccc(Cc2nc3c(c(C(C)C)nn3-c3c(Cl)cccc3Cl)c(=O)[nH]2)cc1` [PEGylated derivative, RGB-286276], the concentration for half-maximal inhibition (IC50) in [1] came out at 34 nM; in experiment [2] it was 84 nM; in [3] it was 22 nM; in experiment [4] it was 890 nM.
For `COc1ccc(Cc2nc3c(c(C(C)C)nn3-c3c(Cl)cc(Cl)cc3Cl)c(=O)[nH]2)cc1` [Pyrazolopyrimidone analog, RGB-285940], the half-inhibitory concentration (IC50) in experiment [5] came to 230 nM; in experiment [6] it was 7 nM; in [7], 858 nM; in experiment [8] it was 410 nM.
Regarding `CC(C)c1nn(-c2c(Cl)cccc2Cl)c2nc(Cc3ccc(OCCN4CCOCC4)cc3)[nH]c(=O)c12` [Pyrazolopyrimidone analog, RGB-285960], the concentration for half-maximal inhibition (IC50) is 310 nM in experiment [5], 9 nM in experiment [6], 1750 nM in [7] and 64 nM in experiment [8].
With `CC(C)c1nn(-c2c(Cl)cccc2Cl)c2nc(Cc3ccc(OCCO)cc3)[nH]c(=O)c12` [Pyrazolopyrimidone analog, RGB-286147], the half-maximal inhibitory concentration (IC50) in [9] is 754 nM; in [10], 71 nM; in experiment [5], 48 nM; in [11] it was 9 nM; in experiment [12], 282 nM; in experiment [6], 15 nM. Further, the IC50 came to 839 nM in experiment [7], 10 nM in [13] and 51 nM in experiment [8].
`COc1ccc(Cc2nc3c(c(C(C)C)nn3-c3c(Cl)cccc3Cl)c(=O)[nH]2)cc1` [Pyrazolopyrimidone analog, RGB-286331]: the IC50 in [5] turned out to be 43 nM; in experiment [6], 4 nM; in [8] it was 220 nM.
Take `COc1ccc(Cc2nc3c(cnn3-c3c(Cl)cc(Cl)cc3Cl)c(=O)[nH]2)cc1` [Pyrazolopyrimidone analog, RGB-310590]: the IC50 in experiment [8] was found to be 5500 nM. This lies in the single-digit micromolar range.
Same read-out and setting: the value for `COc1ccc(Cc2nc3c(c(Cc4ccccc4)nn3-c3c(Cl)cc(Cl)cc3Cl)c(=O)[nH]2)cc1` [Pyrazolopyrimidone analog, RGB-310591] was above 10000 nM; that for `COc1ccc(Cc2nc3n[nH]c(C(C)C)c3c(=O)[nH]2)cc1` [Pyrazolopyrimidone analog, RGB-310595] was above 10000 nM; that for `COc1ccc(Cc2nc3c(c(C(C)C)nn3-c3ccccc3)c(=O)[nH]2)cc1` [Pyrazolopyrimidone analog, RGB-310596] was above 10000 nM.
